From patent US20080004282A1, “Compositions and methods for modulating gated ion channels” (PainCeptor Pharma Corporation, priority 2006, published 2008)

Test system: thermal hyperalgesia from carrageenan-induced acute paw inflammation
Experiment: Carrageenan model, thermal hyperalgesia (Hargreaves' assay)
Format: in vivo
Details: rat, 20 mg/kg s.c. 30 min prior to carrageenan, 2-3 hours post-carrageenan
Protocol: Carrageenan Model for Pain
Acute inflammatory hyperalgesia is induced in rats by unilateral injection of […] of a 3% solution of 1-carrageenan into the plantar surface of the left hind paw 2-4 h prior to testing. Thermal nociceptive thresholds are determined according to the method described elsewhere (Hargreaves et al., 1988). Briefly, through the glass surface, a radiant heat source (8 V, 50 W projector bulb) is focused onto the plantar surface of the hind paw. The rat's paw-withdrawal latency to this stimulus is recorded to the nearest 0.1 s. Each latency score is an average of three trials, which are separated by at least 5 min. In all rats, both the injured and uninjured hind paws are similarly tested, allowing direct comparisons between inflamed and non-inflamed paws.
FIG. 7 illustrates the effect of Compound 44 (20 mg/kg s.c.) on the thermal hyperalgesia (observed in the Hargreaves' assay) resulting from an acute paw inflammation caused by the intraplantar injection of 150 μl of a 3% solution of λ-carrageenan. Compound 44 was given 30 min prior to carrageenan injection and thermal hyperalgesia was tested 2, 3, and 4 h post carrageenan injection.

## CCN1CCc2c(-c3cc(Cl)ccc3OC)cc(C#N)c(N)c2C1 [Compound 44]
  effect on thermal hyperalgesia: completely reversed
